Experimental findings from patent US20260008787A1, “FUSED RING KRAS INHIBITORS FOR TREATING DISEASE” (BLOSSOMHILL THERAPEUTICS, INC., priority 2022, published 2026) are described below.

What all share (assay type): cell-based
Conditions in all cases: 384-well, CellTiter-Glo 2.0
For orientation: Cellular ATP, detected with luciferase, serves as a proxy for viable cell number.

Test [1] deals with GP2D (KRAS G12D). Put plainly: Cell proliferation assay (CellTiter-Glo, 72 hours), GP2D. The protocol:
(§1) Two thousand KRAS mutant cells per well were seeded in 384-well white plate and then treated with indicated compounds for 72 hours at 37° C. and 5% CO2. Cell proliferation was measured using CellTiter-Glo 2.0 luciferase-based ATP detection assay (Promega, Madison, WI) following the manufacturer's protocol. IC50 values were determined using Prism software (GraphPad Software, San Diego, CA).

Test [2] concerns SW620 (KRAS G12V). As to the kind of experiment: Cell proliferation assay (CellTiter-Glo, 72 hours), SW620. How it is done: as §1
Test [3] has as its system AGS (G12D). Put plainly: Cell proliferation assay (CellTiter-Glo, 72 hours), AGS. How it is done: as §1

In general, IC50 refers to the midpoint of a concentration-inhibition curve. A higher IC50 goes with a need for much substance. Consider `C#Cc1c(F)ccc2cc(O)cc(-c3nc4c5c(nc(OC[C@@]67CCCN6C[C@H](F)C7)nc5c3F)N3CCOC[C@H]3CO4)c12` [Example 58, 5-ethynyl-6-fluoro-4-[(8aS)-4-fluoro-2-{[(2R,7aS)-2-fluorotetrahydro-1H-pyrrolizin-7a(5H)-yl]methoxy}-8a,9,11,12-tetrahydro-8H-7,10-dioxa-1,3,6,12a-tetraazabenzo[4,5]cyclohepta[1,2,3-de]naphthalen-5-yl]naphthalen-2-ol], for which the half-maximal inhibitory concentration (IC50) was 36.7 nM in test [1] (GP2d, 72 h); 43.1 nM in test [2] (Homo sapiens, SW-620, 72 h); 59.4 nM in test [3] (72 h).
As for `C#Cc1c(F)ccc2cc(O)cc(-c3nc4c5c(nc(OC[C@@]67CCCN6C/C(=C\F)C7)nc5c3F)N3CCCC[C@H]3CO4)c12` [Example 76, 5-ethynyl-6-fluoro-4-[(8aS)-4-fluoro-2-{[(2Z,7aS)-2-(fluoromethylidene)tetrahydro-1H-pyrrolizin-7a(5H)-yl]methoxy}-8,8a,9,10,11,12-hexahydro-7-oxa-1,3,6,12a-tetraazabenzo[4,5]cyclohepta[1,2,3-de]naphthalen-5-yl]naphthalen-2-ol], the IC50 in test [1] came out at 3.35 nM; in test [2], 11.6 nM; in test [3] it was 12.3 nM.
Turning to `C#Cc1c(F)ccc2cc(O)cc(-c3nc4c5c(nc(OC[C@@]67CCC[N+]6(C)C[C@H](F)C7)nc5c3F)N[C@@H](C)CO4)c12` (stereo partly drawn) [Example 77, (2R,7aS)-7a-({[(9S)-5-(8-ethynyl-7-fluoro-3-hydroxynaphthalen-1-yl)-4-fluoro-9-methyl-9,10-dihydro-8H-7-oxa-1,3,6,10-tetraazacyclohepta[1,2,3-de]naphthalen-2-yl]oxy}methyl)-2-fluoro-4-methylhexahydro-1H-pyrrolizin-4-ium], the half-inhibitory concentration (IC50) in test [1] (GP2d, 72 h) is 1350 nM; in test [2] (Homo sapiens, SW-620, 72 h) it was greater than 3000 nM; in test [3] (72 h) it was greater than 3000 nM.
On to `C#Cc1c(F)ccc2cc(O)cc(-c3nc4c5c(nc(OC[C@@]67CCCN6C[C@H](F)C7)nc5c3F)N(Cc3ccccc3)[C@@H](CO)CO4)c12` [Example 80, 4-[(9S)-10-benzyl-4-fluoro-2-{[(2R,7aS)-2-fluorotetrahydro-1H-pyrrolizin-7a(5H)-yl]methoxy}-9-(hydroxymethyl)-9,10-dihydro-8H-7-oxa-1,3,6,10-tetraazacyclohepta[1,2,3-de]naphthalen-5-yl]-5-ethynyl-6-fluoronaphthalen-2-ol], for which the IC50 in test [1] (GP2d, 72 h) is greater than 3000 nM; in test [2] (Homo sapiens, SW-620, 72 h) it was greater than 3000 nM; in test [3] (72 h), greater than 3000 nM.
On to `C#Cc1c(F)ccc2cc(O)cc(-c3nc4c5c(nc(OC[C@@]67CCCN6C[C@H](F)C7)nc5c3F)N(Cc3ccccc3)[C@H](CO)CO4)c12` [Example 81, 4-[(9R)-10-benzyl-4-fluoro-2-{[(2R,7aS)-2-fluorotetrahydro-1H-pyrrolizin-7a(5H)-yl]methoxy}-9-(hydroxymethyl)-9,10-dihydro-8H-7-oxa-1,3,6,10-tetraazacyclohepta[1,2,3-de]naphthalen-5-yl]-5-ethynyl-6-fluoronaphthalen-2-ol], for which the IC50 is greater than 3000 nM in test [1] (GP2d, 72 h); greater than 3000 nM in test [2] (Homo sapiens, SW-620, 72 h); greater than 3000 nM in test [3] (72 h).
Regarding `C#Cc1c(F)ccc2cc(O)cc(-c3nc4c5c(nc(OC[C@@]67CCCN6C[C@H](F)C7)nc5c3F)N3C[C@@H](O)CC[C@H]3CO4)c12` [Example 86, (8aS,11S)-5-(8-ethynyl-7-fluoro-3-hydroxynaphthalen-1-yl)-4-fluoro-2-{[(2R,7aS)-2-fluorotetrahydro-1H-pyrrolizin-7a(5H)-yl]methoxy}-8,8a,9,10,11,12-hexahydro-7-oxa-1,3,6,12a-tetraazabenzo[4,5]cyclohepta[1,2,3-de]naphthalen-11-7ol], the IC50 in test [1] (GP2d, 72 h) was found to be 9.1 nM; in test [2] (Homo sapiens, SW-620, 72 h) it was 105 nM; in test [3] (72 h) it was 28.3 nM.
The like results for `C#Cc1c(F)ccc2cc(O)cc(-c3nc4c5c(nc(OC[C@@]67CCCN6C[C@H](F)C7)nc5c3F)N3C[C@H](O)CC[C@@H]3CO4)c12` [Example 87, (8aR,11R)-5-(8-ethynyl-7-fluoro-3-hydroxynaphthalen-1-yl)-4-fluoro-2-{[(2R,7aS)-2-fluorotetrahydro-1H-pyrrolizin-7a(5H)-yl]methoxy}-8,8a,9,10,11,12-hexahydro-7-oxa-1,3,6,12a-tetraazabenzo[4,5]cyclohepta[1,2,3-de]naphthalen-11-ol] were, in that order, 64.5 nM, 686 nM and 132 nM.
In the case of `C#Cc1c(F)ccc2cc(O)cc(-c3nc4c5c(nc(OC[C@@]67CCCN6C[C@H](F)C7)nc5c3F)N[C@@H](CC)CO4)c12` [Example 90, 4-[(9S)-9-ethyl-4-fluoro-2-{[(2R,7aS)-2-fluorotetrahydro-1H-pyrrolizin-7a(5H)-yl]methoxy}-9,10-dihydro-8H-7-oxa-1,3,6,10-tetraazacyclohepta[1,2,3-de]naphthalen-5-yl]-5-ethynyl-6-fluoronaphthalen-2-ol], the IC50 in test [1] (GP2d, 72 h) amounted to 189 nM; in test [2] (Homo sapiens, SW-620, 72 h), 1950 nM; in test [3] (72 h) it was 754 nM.
For `C#Cc1c(F)ccc2cc(O)cc(-c3nc4c5c(nc(OC[C@@]67CCCN6C[C@H](F)C7)nc5c3F)N(C)[C@H](CO)CO4)c12` [Example 91, 5-ethynyl-6-fluoro-4-[(9R)-4-fluoro-2-{[(2R,7aS)-2-fluorotetrahydro-1H-pyrrolizin-7a(5H)-yl]methoxy}-9-(hydroxymethyl)-10-methyl-9,10-dihydro-8H-7-oxa-1,3,6,10-tetraazacyclohepta[1,2,3-de]naphthalen-5-yl]naphthalen-2-ol] the same measures were 543 nM, greater than 3000 nM and 923 nM.
As for `CCc1c(F)ccc2cc(O)cc(-c3nc4c5c(nc(OC[C@@]67CCCN6C[C@H](F)C7)nc5c3F)N(C)[C@H](CO)CO4)c12` [Example 92, 5-ethyl-6-fluoro-4-[(9R)-4-fluoro-2-{[(2R,7aS)-2-fluorotetrahydro-1H-pyrrolizin-7a(5H)-yl]methoxy}-9-(hydroxymethyl)-10-methyl-9,10-dihydro-8H-7-oxa-1,3,6,10-tetraazacyclohepta[1,2,3-de]naphthalen-5-yl]naphthalen-2-ol], the half-maximal inhibitory concentration (IC50) in test [1] (GP2d, 72 h) came out at 348 nM; in test [2] (Homo sapiens, SW-620, 72 h), 579 nM; in test [3] (72 h) it was 393 nM.
For `C#Cc1c(F)ccc2cc(O)cc(-c3nc4c5c(nc(OC[C@@]67CCCN6C[C@H](F)C7)nc5c3F)N3C[C@@H](O)CC[C@@H]3CO4)c12` [Example 94, (8aR,11S)-5-(8-ethynyl-7-fluoro-3-hydroxynaphthalen-1-yl)-4-fluoro-2-{[(2R,7aS)-2-fluorotetrahydro-1H-pyrrolizin-7a(5H)-yl]methoxy}-8,8a,9,10,11,12-hexahydro-7-oxa-1,3,6,12a-tetraazabenzo[4,5]cyclohepta[1,2,3-de]naphthalen-11-ol] the same measures were 1100 nM, greater than 3000 nM and greater than 3000 nM.
The like results for `C#Cc1c(F)ccc2cc(O)cc(-c3nc4c5c(nc(OC[C@@]67CCCN6C[C@H](F)C7)nc5c3F)NC3(CC3)CO4)c12` [Example 95, 5-ethynyl-6-fluoro-4-(4′-fluoro-2′-{[(2R,7aS)-2-fluorotetrahydro-1H-pyrrolizin-7a(5H)-yl]methoxy}-8′H,10′H-spiro[cyclopropane-1,9′-[7]oxa[1,3,6,10]tetraazacyclohepta[1,2,3-de]naphthalen]-5′-yl)naphthalen-2-ol] were, in that order, 993 nM, greater than 3000 nM and greater than 3000 nM.
In the case of `C#Cc1c(F)ccc2cc(O)cc(-c3nc4c5c(nc(OC[C@@]67CCCN6C[C@H](O)C7)nc5c3F)N3CCCC[C@H]3CO4)c12` [Example 97, (2R,7aS)-7a-({[(8aS)-5-(8-ethynyl-7-fluoro-3-hydroxynaphthalen-1-yl)-4-fluoro-8,8a,9,10,11,12-hexahydro-7-oxa-1,3,6,12a-tetraazabenzo[4,5]cyclohepta[1,2,3-de]naphthalen-2-yl]oxy}methyl)hexahydro-1H-pyrrolizin-2-ol], the IC50 amounted to 916 nM in test [1] (GP2d, 72 h); 1180 nM in test [2] (Homo sapiens, SW-620, 72 h); 385 nM in test [3] (72 h).
For `CCc1c(F)ccc2cc(O)cc(-c3nc4c5c(nc(OC[C@@]67CCCN6C[C@H](F)C7)nc5c3F)N[C@H](CO)CO4)c12` [Example 100, 5-ethyl-6-fluoro-4-[(9R)-4-fluoro-2-{[(2R,7aS)-2-fluorotetrahydro-1H-pyrrolizin-7a(5H)-yl]methoxy}-9-(hydroxymethyl)-9,10-dihydro-8H-7-oxa-1,3,6,10-tetraazacyclohepta[1,2,3-de]naphthalen-5-yl]naphthalen-2-ol] the same measures were greater than 3000 nM, greater than 3000 nM and greater than 3000 nM.
Regarding `C#Cc1c(F)ccc2cc(O)cc(-c3nc4c5c(nc(OC[C@@]67CCCN6C[C@@H](O)C7)nc5c3F)N3CCCC[C@H]3CO4)c12` [Example 101, (2S,7aS)-7a-({[(8aS)-5-(8-ethynyl-7-fluoro-3-hydroxynaphthalen-1-yl)-4-fluoro-8,8a,9,10,11,12-hexahydro-7-oxa-1,3,6,12a-tetraazabenzo[4,5]cyclohepta[1,2,3-de]naphthalen-2-yl]oxy}methyl)hexahydro-1H-pyrrolizin-2-ol], the IC50 in test [1] (GP2d, 72 h) was 880 nM; in test [2] (Homo sapiens, SW-620, 72 h) it was greater than 3000 nM; in test [3] (72 h), greater than 3000 nM.
Consider `C#Cc1c(F)ccc2cc(O)cc(-c3nc4c5c(nc(OC[C@@]67CCCN6C[C@H](F)C7)nc5c3F)N[C@H]3CCC[C@H]3O4)c12` [Example 102, 5-ethynyl-6-fluoro-4-[(7aR,10aS)-4-fluoro-2-{[(2R,7aS)-2-fluorotetrahydro-1H-pyrrolizin-7a(5H)-yl]methoxy}-7a,8,9,10,10a,11-hexahydro-7-oxa-1,3,6,11-tetraazanaphtho[1,8-fg]azulen-5-yl]naphthalen-2-ol], for which the IC50 was greater than 3000 nM in test [1] (GP2d, 72 h); greater than 3000 nM in test [2] (Homo sapiens, SW-620, 72 h); greater than 3000 nM in test [3] (72 h).
